From patent US10137110B2, “1-cyclohexyl-2-phenylaminobenzimidazoles as mIDH1 inhibitors for the treatment of tumors” (Bayer Pharma Aktiengesellschaft, priority 2014, dated 2018)

How the values were obtained:
[1] = molecular target: IDH1 R132H enzyme (Homo sapiens (Human), UniProt O75874, R132H); test: Mutant IDH1 R132H biochemical assay; settings: NADPH consumption, luminescent readout; 1.5 nM enzyme, 250 μM α-KG, 1 μM NADPH, 30 minutes, 32° C.; test range 0.002-10 μM
Experimental: mIDH1 catalyzes the NADPH-dependent reduction of alpha-ketoglutarate (α-KG) to (2R)-2-hydroxyglutarate (2-HG). NADPH consumption was measured by luminescent readout.
The biochemical reactions were performed at 32° C. in 384-well plates using a reaction volume of 41 μl and the following assay buffer conditions: 50 mM Tris pH 7.5, 100 mM NaCl, 20 mM MgCl2, 0.05% BSA, 0.01% Brij, 1 μM NADPH, and 250 μM α-KG. […] Test compounds were used in a concentration range between 0.002 and 10 μM. The final DMSO concentration was 2.4%.
The reaction was incubated for 30 minutes, then 40 μl of detection mix (0.75 μg/ml Luciferase, 0.02 U/ml Oxidoreductase, 4 μg/ml FMN, 2 μl/ml Decanal/Ethanol, 50 mM Tris pH 7.5, 0.5% Glycerin, 0.01% Tween-20, 0.05% BSA) was added. Luminescence was measured on a luminescent reader (10 seconds measuring time, 1 second integration period, 30% sensitivity). The decrease in luminescence is proportional to mIDH1 activity. IC50 values are determined by interpolation from plots of relative luminescence versus inhibitor concentration.

[2] = molecular target: mutated isocitrate dehydrogenase (mIDH) protein overexpressed in LN229 R132H cells (Homo sapiens (Human), UniProt O75874, R132H); test: Mutant IDH1 cellular assay (2-HG in medium of LN229 R132H cells); format: cell-based; settings: 24 hours, fluorescence readout
Chain of mutated isocitrate dehydrogenase (mIDH) protein overexpressed in LN229 R132H cells (O75874 whole entry R132H): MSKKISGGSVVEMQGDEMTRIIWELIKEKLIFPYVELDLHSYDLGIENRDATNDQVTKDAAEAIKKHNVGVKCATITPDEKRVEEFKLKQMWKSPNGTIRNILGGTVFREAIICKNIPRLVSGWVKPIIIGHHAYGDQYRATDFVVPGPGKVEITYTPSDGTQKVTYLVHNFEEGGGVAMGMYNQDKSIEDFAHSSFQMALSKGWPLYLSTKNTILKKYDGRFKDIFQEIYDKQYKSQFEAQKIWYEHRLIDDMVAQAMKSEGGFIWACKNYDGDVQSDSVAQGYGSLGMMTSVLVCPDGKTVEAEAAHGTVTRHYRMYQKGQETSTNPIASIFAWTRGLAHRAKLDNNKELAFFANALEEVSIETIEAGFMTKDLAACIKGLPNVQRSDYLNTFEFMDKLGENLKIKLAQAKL
Experimental: Mutant IDH1 Cellular Assay
Levels of (2R)-2-hydroxyglutarate (2HG) were measured in medium of a cell line with overexpression of mutated isocitrate dehydrogenase (mIDH) protein. mIDH catalyzes the NADPH-dependent reduction of alpha-ketoglutarate to 2-HG. Cells (LN229 R132H, Mohrenz et al., Apoptosis (2013) 18:1416-1425) were grown in DMEM containing 10% FCS. They were harvested by trypsin and seeded into 96-well plates. Cells were incubated overnight at 37° C. in 5% CO2. The next day test compounds were added to each cell well. The final concentration of DMSO was 0.1% and DMSO controls were included. The plates were then placed in an incubator for 24 hours.
2-HG was measured according to Balss et al. (Acta Neuropathol (2012) 124: 883-891). Briefly, HClO4 was added to each well and the plates were centrifuged. Aliquots are removed and incubated with hydroxyglutarate dehydrogenase (HGDH), diaphorase, NAD+, and resazurin. The conversion of resazurin to resorufin was detected by fluorescence spectroscopy at Ex 540 nm Em 600 nm. The increase in fluorescence is proportional to 2-HG production. IC50 values are determined by interpolation from plots of relative fluorescence vs inhibitor concentration.

Chain of IDH1 R132H enzyme (O75874 whole entry R132H): as above

Row | SMILES | IC50 [1] | IC50 [2]
1 | Cc1cc(-c2ccc3c(c2)nc(Nc2ccc(OC(F)(F)F)cc2)n3[C@H]2C[C@@H](C)CC(C)(C)C2)cc(C)c1O (racemic) [Example 2-34, (±) 2,6-dimethyl-4-(2-{[4-(trifluoromethoxy)phenyl]amino}-1-[(cis)-3,3,5-trimethylcyclohexyl]-1H-benzimidazol-5-yl)phenol] | 0.18 µM | 
2 | Cc1noc(C)c1-c1ccc2c(c1)nc(Nc1ccc(OC(F)(F)F)cc1)n2[C@H]1C[C@@H](C)CC(C)(C)C1 (single isomer, unassigned) [Example 2-1-2, 5-(3,5-dimethyl-1,2-oxazol-4-yl)-N-[4-(trifluoromethoxy)phenyl]-1-[(cis)-3,3,5-trimethylcyclohexyl]-1H-benzimidazol-2-amine] | 0.07 µM | 
3 | C[C@H]1C[C@@H](n2c(Nc3ccc(OC(F)(F)F)cc3)nc3cc(-c4cnoc4)ccc32)CC(C)(C)C1 (stereo in doubt) [Example 2-9] | 0.18 µM | 2 µM
4 | C[C@@H]1C[C@H](n2c(Nc3ccc(OC(F)(F)F)cc3)nc3cc(-c4cc(F)c(O)c(F)c4)ccc32)CC(C)(C)C1 (racemic) [Example 2-33, (±) 2,6-difluoro-4-(2-{[4-(trifluoromethoxy)phenyl]amino}-1-[(cis)-3,3,5-trimethylcyclohexyl]-1H-benzimidazol-5-yl)phenol] | 0.67 µM | 
5 | Cc1n[nH]c(C)c1-c1ccc2c(c1)nc(Nc1ccc(SC(F)(F)F)cc1)n2[C@@H]1C[C@H](C)CC(C)(C)C1 (stereo in doubt) [Example 2-10] | 0.14 µM | 2 µM
6 | C[C@@H]1C[C@H](n2c(Nc3ccc(OC(F)(F)F)cc3)nc3cc(-c4ccc(C(=O)O)cc4)ccc32)CC(C)(C)C1 (racemic) [Example 2-3, (±) 4-(2-{[4-(trifluoromethoxy)phenyl]amino}-1-[(cis)-3,3,5-trimethylcyclohexyl]-1H-benzimidazol-5-yl)benzoic acid] | 0.46 µM | 
7 | CCOc1noc(C)c1-c1ccc2c(c1)nc(Nc1ccc(OC(F)(F)F)cc1)n2[C@H]1C[C@@H](C)CC(C)(C)C1 (racemic) [Example 2-35, (±) 5-(3-ethoxy-5-methyl-1,2-oxazol-4-yl)-N-[4-(trifluoromethoxy)phenyl]-1-[(cis)-3,3,5-trimethylcyclohexyl]-1H-benzimidazol-2-amine] | 0.24 µM | 
8 | C[C@@H]1C[C@H](n2c(Nc3ccc(OC(F)(F)F)cc3)nc3cc(-c4cccc(C(=O)O)c4)ccc32)CC(C)(C)C1 (racemic) [Example 2-2, (±) 3-(2-{[4-(trifluoromethoxy)phenyl]amino}-1-[(cis)-3,3,5-trimethylcyclohexyl]-1H-benzimidazol-5-yl)benzoic acid] | 0.07 µM | 0.36 µM
9 | Cc1noc(C)c1-c1ccc2c(c1)nc(Nc1ccc(SC(F)(F)F)cc1)n2[C@@H]1C[C@H](C)CC(C)(C)C1 (stereo in doubt) [Example 2-21-1] | 1.1 µM | 10 µM
10 | C[C@H]1C[C@@H](n2c(Nc3ccc(OC(F)(F)F)cc3)nc3cc(-c4ccn[nH]4)ccc32)CC(C)(C)C1 (stereo in doubt) [Example 2-8] | 0.13 µM | 2 µM
11 | C[C@@H]1C[C@H](n2c(Nc3ccc(OC(F)(F)F)cc3)nc3cc(-c4cnn(C)c4)ccc32)CC(C)(C)C1 (stereo in doubt) [Example 2-13-2] | 1 µM | 
12 | Cc1cc2c(cc1C1OC(=O)NC1=O)nc(Nc1ccc(OC(F)(F)F)cc1)n2C1CC(C)(C)CC(C)(C)C1 (centres unmarked) [Example 2-36, 5-[6-methyl-1-(3,3,5,5-tetramethylcyclohexyl)-2-{[4-(trifluoromethoxy)phenyl]amino}-1H-benzimidazol-5-yl]-1,3-oxazolidine-2,4-dione] | 0.014 µM | 0.022 µM
13 | Cc1n[nH]c(C)c1-c1ccc2c(c1)nc(Nc1ccc(C(F)(F)F)cc1)n2[C@H]1C[C@@H](C)CC(C)(C)C1 (stereo in doubt) [Example 2-24-2] | 0.14 µM | 7 µM
14 | C[C@H]1C[C@@H](n2c(Nc3ccc(OC(F)(F)F)cc3)nc3cc(-c4ccc(C(N)=O)cc4)ccc32)CC(C)(C)C1 (stereo in doubt) [Example 2-17] | 0.44 µM | 
15 | Cc1nn(C)c(C)c1-c1ccc2c(c1)nc(Nc1ccc(OC(F)(F)F)cc1)n2[C@@H]1C[C@H](C)CC(C)(C)C1 (stereo in doubt) [Example 2-19] | 1.9 µM | 10 µM
16 | COc1cc(-c2ccc3c(c2)nc(Nc2ccc(OC(F)(F)F)cc2)n3[C@@H]2C[C@H](C)CC(C)(C)C2)ccn1 (stereo in doubt) [Example 2-14] | 1.3 µM | 

Row | SMILES | IC50 [1] | IC50 [2]
17 | Cc1n[nH]c(C)c1-c1ccc2c(c1)nc(Nc1ccc(SC(F)(F)F)cc1)n2[C@@H]1C[C@H](C)CC(C)(C)C1 (stereo in doubt) [Example 2-10-1] | 0.3 µM | 10 µM
18 | COC(=O)c1cccc(-c2ccc3c(c2)nc(Nc2ccc(OC(F)(F)F)cc2)n3[C@H]2C[C@@H](C)CC(C)(C)C2)c1 (racemic) [Example 2-15, (±) Methyl 3-(2-{[4-(trifluoromethoxy)phenyl]amino}-1-[(cis)-3,3,5-trimethylcyclohexyl]-1H-benzimidazol-5-yl)benzoate] | 1.5 µM | 
19 | C[C@H]1C[C@@H](n2c(Nc3ccc(OC(F)(F)F)cc3)nc3cc(-c4cccc(C(N)=O)c4)ccc32)CC(C)(C)C1 (stereo in doubt) [Example 2-11] | 0.21 µM | 2.8 µM
20 | COC(=O)c1ccc(-c2ccc3c(c2)nc(Nc2ccc(OC(F)(F)F)cc2)n3[C@H]2C[C@@H](C)CC(C)(C)C2)cc1 (racemic) [Example 2-18, (±) Methyl 4-(2-{[4-(trifluoromethoxy)phenyl]amino}-1-[(cis)-3,3,5-trimethylcyclohexyl]-1H-benzimidazol-5-yl)benzoate] | 4 µM | 
21 | C[C@@H]1C[C@H](n2c(Nc3ccc(OC(F)(F)F)cc3)nc3cc(-c4cn(C)nc4C(F)(F)F)ccc32)CC(C)(C)C1 (stereo in doubt) [Example 2-16-2] | 0.78 µM | 
22 | Cc1cc(-c2ccc3c(c2)nc(Nc2ccc(OC(F)(F)F)cc2)n3[C@@H]2C[C@H](C)CC(C)(C)C2)n(C)n1 (stereo in doubt) [Example 2-12-1] | 4.3 µM | 
23 | Cc1nnc(-c2ccc3c(c2)nc(Nc2ccc(OC(F)(F)F)cc2)n3C2CC(C)(C)CC(C)(C)C2)o1 [Example 2-25, 5-(5-Methyl-1,3,4-oxadiazol-2-yl)-1-(3,3,5,5-tetramethylcyclohexyl)-N-[4-(trifluoromethoxy)phenyl]-1H-benzimidazol-2-amine] | 0.13 µM | 
24 | C[C@H]1C[C@@H](n2c(Nc3ccc(OC(F)(F)F)cc3)nc3cc(-c4cnn(C)c4)ccc32)CC(C)(C)C1 (stereo in doubt) [Example 2-13-1] | 0.24 µM | 
25 | Cc1n[nH]c(C)c1-c1ccc2c(c1)nc(Nc1ccc(OC(F)(F)F)cc1)n2[C@@H]1C[C@H](C)CC(C)(C)C1 (stereo in doubt) [Example 2-5-1] | 0.67 µM | 
26 | C[C@H]1C[C@@H](n2c(Nc3ccc(OC(F)(F)F)cc3)nc3cc(-c4cn(C)nc4C(F)(F)F)ccc32)CC(C)(C)C1 (stereo in doubt) [Example 2-16] | 0.29 µM | 
27 | Cc1noc(C)c1-c1ccc2c(c1)nc(Nc1ccc(OC(F)(F)F)cc1)n2[C@H]1C[C@@H](C)CC(C)(C)C1 (single isomer, unassigned) [Example 2-1-1, 5-(3,5-dimethyl-1,2-oxazol-4-yl)-N-[4-(trifluoromethoxy)phenyl]-1-[(cis)-3,3,5-trimethylcyclohexyl]-1H-benzimidazol-2-amine] | 0.24 µM | 
28 | Cc1cc(-c2ccc3c(c2)nc(Nc2ccc(OC(F)(F)F)cc2)n3[C@H]2C[C@@H](C)CC(C)(C)C2)n(C)n1 (stereo in doubt) [Example 2-12-2] | 1.6 µM | 
29 | C[C@H]1C[C@H](n2c(Nc3ccc(OC(F)(F)F)cc3)nc3cc(-c4nnn[nH]4)ccc32)CC(C)(C)C1 (racemic) [Example 2-27, (±) 5-(1H-tetrazol-5-yl)-N-[4-(trifluoromethoxy)phenyl]-1-[(trans)-3,3,5-trimethylcyclohexyl]-1H-benzimidazol-2-amine] | 1.8 µM | 
30 | C[C@H]1C[C@@H](n2c(Nc3ccc(OC(F)(F)F)cc3)nc3cc(-c4cn(C)nc4C(F)(F)F)ccc32)CC(C)(C)C1 (stereo in doubt) [Example 2-16-1] | 7.8 µM | 
31 | C[C@H]1C[C@@H](n2c(Nc3ccc(OC(F)(F)F)cc3)nc3cc(-c4ccnn4C)ccc32)CC(C)(C)C1 (stereo in doubt) [Example 2-20] |  | 4 µM
